According to patent US20120184493A1, “DERMAL FORMULATIONS OF DP2 RECEPTOR ANTAGONISTS” (PANMIRA PHARMACEEUTICALS, LLC, priority 2009, published 2012):

What was measured:
human DP2 receptor = target: T1, human DP2 receptor (Homo sapiens, UniProt Q9Y5Y4); assay: DP2/CRTH2 radioligand binding assay using [3H]PGD2; conditions: membranes of HEK293 cells expressing recombinant human DP2, 1 nM [3H]PGD2; read-out: hDP2
T1 construct: expressed in transfected cells
T1 sequence (Q9Y5Y4 1-395): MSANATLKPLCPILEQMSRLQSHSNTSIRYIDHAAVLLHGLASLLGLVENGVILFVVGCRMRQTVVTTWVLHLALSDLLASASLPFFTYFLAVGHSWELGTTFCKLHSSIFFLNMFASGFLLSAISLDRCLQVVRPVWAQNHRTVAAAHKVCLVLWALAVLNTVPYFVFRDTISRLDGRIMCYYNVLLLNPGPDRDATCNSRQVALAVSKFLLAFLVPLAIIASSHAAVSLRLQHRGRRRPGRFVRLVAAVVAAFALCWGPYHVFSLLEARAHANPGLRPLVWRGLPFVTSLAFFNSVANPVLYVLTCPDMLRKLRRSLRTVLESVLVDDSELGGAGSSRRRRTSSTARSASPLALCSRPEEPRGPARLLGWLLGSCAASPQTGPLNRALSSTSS
Experimental: The ability of a compound to bind to the human DP2 receptor is assessed via a radioligand binding assay using [^3H]PGD2. HEK293 cells stably expressing recombinant human DP2 are resuspended in 10 mM Hepes, 7.4 containing 1 mM DTT, lysed and centrifuged at 75,000×g to pellet the membranes. The membranes are resuspended in 10 mM Hepes, 7.4 containing 1 mM DTT and 10% glycerol to approximately 5 mg protein/ml. Membranes (2-10 μg protein/well) are incubated in 96-well plates with 1 nM [^3H]PGD2 and test compound in Assay Buffer (50 mM Hepes, 10 mM MnCl2, 1 mM EDTA, plus or minus 0.2% human serum albumin, pH 7.4) for 60 minutes at room temperature. The reactions are terminated by rapid filtration through Whatman GF/C glass fibre filter plates. The filter plates were pre-soaked in 0.33% polythylenimine for 30 minutes at room temperature then washed in Wash Buffer (50 mM Hepes, 0.5 M NaCl pH 7.4) prior to harvesting. After harvesting, the filter plates are washed 3 times with 1 ml cold Wash Buffer then dried. Scintillant is then added to the plates and the radioactivity retained on the filters is determined on a Packard TopCount (Perkin Elmer). Specific binding is determined as total radioactive binding minus non-specific binding in the presence of 10 μM PGD2. IC50s were determined using GraphPad prism analysis of drug titration curves.

human DP1 receptor = target: T2, human DP1 receptor (Homo sapiens, UniProt Q13258); assay: DP1 radioligand membrane binding assay using [3H]BWA868C; conditions: human platelet membranes, 2 nM [3H]BWA868C; read-out: hDP1
T2 construct: tissue Biological Specialty Corporation; host or cells: human platelets, membrane preparation
T2 sequence (Q13258 1-359): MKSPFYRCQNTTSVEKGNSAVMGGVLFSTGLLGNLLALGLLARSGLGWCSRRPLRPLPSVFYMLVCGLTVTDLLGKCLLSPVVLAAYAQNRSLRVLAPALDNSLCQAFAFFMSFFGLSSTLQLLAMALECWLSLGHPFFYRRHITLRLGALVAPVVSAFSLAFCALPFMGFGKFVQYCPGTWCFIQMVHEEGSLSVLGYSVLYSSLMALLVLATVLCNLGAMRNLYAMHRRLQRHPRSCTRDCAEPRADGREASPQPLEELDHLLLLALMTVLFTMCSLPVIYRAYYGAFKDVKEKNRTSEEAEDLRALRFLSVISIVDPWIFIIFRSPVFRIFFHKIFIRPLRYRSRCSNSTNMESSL
Experimental: The ability of a compound to bind to the human DP1 receptor was evaluated via a radioligand membrane binding assay using the DP1 selective synthetic ligand [^3H]BWA868C. Packed human platelets (Biological Specialty Corporation), were resuspended in 6 volumes of Hepes/HBSS buffer (10 mM Hepes, 1 mM DTT in Hanks Balanced Salt Solution (HBSS)), lysed and centrifuged at 75,000×g to pellet the membranes. Membranes were resuspended in Hepes/HBSS buffer to approximately 12 mg protein/ml. Membranes (20 μg protein/well) are incubated in 96-well plates with 2 nM [^3H]BWA868C and test compound in Assay Buffer (50 mM Hepes, 10 mM MnCl2, 1 mM EDTA, plus or minus 0.2% human serum albumin, pH 7.4) for 60 minutes at room temperature. The reactions are terminated by rapid filtration through Whatman GF/C glass fibre filter plates. The filter plates were pre-soaked in 0.33% polethylenimine for 30 minutes at room temperature then washed in Wash Buffer (50 mM Hepes, 0.5 M NaCl pH 7.4) prior to harvesting. After harvesting, the filter plates are washed 3 times with 1 ml cold Wash Buffer then dried. Scintillant is then added to the plates and the radioactivity retained on the filters is determined on a Packard TopCount (Perkin Elmer). Specific binding is determined as total radioactive binding minus non-specific binding in the presence of 10 μM BW A868C. IC50s were determined using GraphPad prism analysis of drug titration curves.

IC50 (human DP2 receptor) [nM] | IC50 (human DP1 receptor) [nM] | Structure (SMILES)
< 300 | > 1000 | COc1ccc(CC(=O)O)cc1Oc1ccc(NC(=O)C(C)(C)C)cc1CSC(C)(C)C [{3-[2-tert-Butylsulfanylmethyl-4-(2,2-dimethyl-propionylamino)-phenoxy]-4-methoxy-phenyl}-acetic acid]
< 300 | > 1000 | CN(C1CCc2c(c3ncccc3n2CC(=O)O)C1)S(=O)(=O)c1ccc(F)cc1 (stereo not shown) [{8-[(4-fluoro-benzenesulfonyl)-methyl-amino]-6,7,8,9-tetrahydro-pyrido[3,2-b]indol-5-yl}-acetic acid]
 | > 1000 | CCOc1ccc(-c2ccc(-c3cc(CC(=O)O)ccc3OC)c(CN(CC)C(=O)C3CC3)c2)cn1 [[2′-[(N-cyclopropanecarbonyl-N-ethyl-amino)-methyl]-4′-(6-ethoxy-pyridin-3-yl)-6-methoxy-biphenyl-3-yl]-acetic acid]
< 300 | > 1000 | CCN(Cc1cc(C(F)(F)F)ccc1-c1cncc(CC(=O)O)c1)C(=O)OCc1ccccc1 [(5-{2-[(N-benzyloxycarbonyl-N-ethyl-amino)-methyl]-4-trifluoromethyl-phenyl}-pyridin-3-yl)-acetic acid]
